Converted amounts (≈) assume the structure as drawn.
Legend:
[1] = Solubility of compound in water by LC-UV analysis; type: physicochemical; conditions: water; read-out: solubility
[2] = system: Mycobacterium tuberculosis; assay: Antimycobacterial activity against Mycobacterium tuberculosis H37Rv ATCC 27294 assessed as bacterial growth inhibition incubated for 5 days under normoxic condition by resazurin microtiter assay; type: functional; conditions: H37Rv ATCC 27294, 120 h, time 5 day
[3] = system: Mycobacterium tuberculosis; assay: Antimycobacterial activity against Mycobacterium tuberculosis H37Ra ATCC 25177 assessed as bacterial growth inhibition incubated for 6 days under normoxic condition by resazurin microtiter assay; type: functional; conditions: H37Ra ATCC 25177, 144 h, time 6 day
Mycobacterium avium = assay: Antimycobacterial activity against Mycobacterium avium ATCC 25291 assessed as bacterial growth inhibition incubated for 6 days under normoxic condition by resazurin microtiter assay; type: functional; conditions: ATCC 25291, 144 h, time 6 day
[4] = system: Mycolicibacterium smegmatis; assay: Antimycobacterial activity against Mycobacterium smegmatis mc2155 ATCC 700084 assessed as bacterial growth inhibition incubated for 24 hrs under normoxic condition by resazurin microtiter assay; type: functional
[5] = system: Mycobacterium tuberculosis; assay: Antimycobacterial activity against Mycobacterium tuberculosis H37Rv ATCC 27294 assessed as bacterial growth inhibition incubated for 5 days under hypoxic condition by resazurin microtiter assay; type: functional; conditions: H37Rv ATCC 27294, 120 h, time 5 day
[6] = system: Mycobacterium tuberculosis; assay: Substrate activity at Mycobacterium tuberculosis Ddn expressed in Escherichia coli BL21 (DE3) assessed as oxidation of F420H2 by measuring Kcat by spectrophotometric analysis
[7] = system: Mycobacterium tuberculosis; assay: Substrate activity at Mycobacterium tuberculosis Ddn expressed in Escherichia coli BL21 (DE3) assessed as oxidation of F420H2 by measuring Km by spectrophotometric analysis
[8] = system: Mycobacterium tuberculosis; assay: Substrate activity at Mycobacterium tuberculosis Ddn expressed in Escherichia coli BL21 (DE3) assessed as oxidation of F420H2 by measuring Kcat/Km by spectrophotometric analysis
[9] = Plasma protein binding in human; type: ADME, cell-free; conditions: read-out: PPB (converted)
[10] = Plasma protein binding in mouse; type: ADME, cell-free; conditions: read-out: PPB (converted)
[11] = Cmax in CD-1 mouse at 20 mg/kg, po administered as DMSO/PEG400 formulation measured upto 24 hrs by LC-MS/MS analysis; type: ADME, organism-based; design: dose 20 mg/kg, time < 24 hrs, route po; conditions: in vivo
[12] = AUC(0 to 8 hrs) in CD-1 mouse at 20 mg/kg, po administered as DMSO/PEG400 formulation measured upto 24 hrs by LC-MS/MS analysis; type: ADME, organism-based; design: dose 20 mg/kg, time < 24 hrs, route po; conditions: in vivo
[13] = Tmax in CD-1 mouse at 20 mg/kg, po administered as DMSO/PEG400 formulation measured upto 24 hrs by LC-MS/MS analysis; type: ADME, organism-based; conditions: in vivo
[14] = Oral bioavailability in CD-1 mouse at 20 mg/kg administered as DMSO/PEG400 formulation measured upto 24 hrs by LC-MS/MS analysis; type: ADME, organism-based; conditions: in vivo
[15] = Volume of distribution at steady state in CD-1 mouse at 5 mg/kg, iv administered as DMSO/PEG400 formulation measured upto 24 hrs by LC-MS/MS analysis; type: ADME, organism-based; conditions: in vivo, read-out: Vdss
[16] = Clearance in CD-1 mouse at 5 mg/kg, iv administered as DMSO/PEG400 formulation measured upto 24 hrs by LC-MS/MS analysis; type: ADME, organism-based; conditions: in vivo
[17] = Half life in CD-1 mouse at 5 mg/kg, iv administered as DMSO/PEG400 formulation measured upto 24 hrs by LC-MS/MS analysis; type: ADME, organism-based; conditions: in vivo
[18] = system: Mycobacterium tuberculosis; assay: (§1) Antimycobacterial activity against Mycobacterium tuberculosis infected in BALB/c mouse assessed as log reduction in bacterial load in lung by measuring colony forming unit at 12.5 mg/kg, po administered 5 days per week for 3 weeks starting from day 10 post infection (reference value: 8.8 x 10^3 CFU); type: functional
[19] = system: Mycobacterium tuberculosis; assay: Antimycobacterial activity against Mycobacterium tuberculosis infected in BALB/c mouse assessed as log reduction in bacterial load in lung by measuring colony forming unit at 25 mg/kg, po administered 5 days per week for 3 weeks starting from day 10 post infection (reference value: 8.8 x 10^3 CFU); type: functional
[20] = system: Mycobacterium tuberculosis; assay: Antimycobacterial activity against Mycobacterium tuberculosis infected in BALB/c mouse assessed as log reduction in bacterial load in lung by measuring colony forming unit at 50 mg/kg, po administered 5 days per week for 3 weeks starting from day 10 post infection (reference value: 8.8 x 10^3 CFU); type: functional
[21] = Toxicity in BALB/c mouse infected with Mycobacterium tuberculosis assessed as mortality at 12.5 to 50 mg/kg, po administered 5 days per week for 3 weeks starting from day 10 post infection; type: organism-based; conditions: in vivo, 504 h, dose 12.5-50 mg/kg
[22] = Toxicity in BALB/c mouse infected with Mycobacterium tuberculosis assessed as body weight loss at 12.5 to 50 mg/kg, po administered 5 days per week for 3 weeks starting from day 10 post infection; type: organism-based; conditions: in vivo, 120 h, dose 12.5-50 mg/kg, time 5 day
[23] = Metabolic stability in human microsomes assessed as compound remaining measured after 2 hrs; type: ADME, Microsome; conditions: read-out: Stability
[24] = Metabolic stability in mouse microsomes assessed as compound remaining measured after 2 hrs; type: ADME, Microsome; conditions: read-out: Stability
[25] = Stability in human plasma assessed as compound remaining measured after 2 hrs; type: ADME, cell-free; conditions: read-out: Stability
[26] = Stability in mouse plasma assessed as compound remaining measured after 2 hrs; type: ADME, cell-free; conditions: read-out: Stability
[27] = Half life in CD-1 mouse at 20 mg/kg, po administered as DMSO/PEG400 formulation measured upto 24 hrs by LC-MS/MS analysis; type: ADME, organism-based; conditions: in vivo
[28] = AUC(0 to 24 hrs) in CD-1 mouse at 20 mg/kg, po administered as DMSO/PEG400 formulation measured upto 24 hrs by LC-MS/MS analysis; type: ADME, organism-based; design: dose 20 mg/kg, time < 24 hrs, route po; conditions: in vivo
[29] = system: Mycobacterium tuberculosis; assay: as §1, with “12.5 to 50” for “12.5”; type: functional; conditions: dose 12.5-50 mg/kg
[30] = Solubility of compound in water at pH 7 by LC-UV analysis; type: physicochemical
[31] = Solubility of compound in water at 0.1 M HCl at pH 1 by LC-UV analysis; type: physicochemical; conditions: 0.1 M HCl in water
Trypanosoma cruzi [32] = assay: Antitrypanosomal activity against Trypanosoma cruzi Tulahuen amastigotes infected in mouse 3T3 cells assessed as inhibition of parasite growth incubated for 48 hrs by […] staining based analysis; type: functional, organism-based; conditions: NIH3T3, time 48 hrs
Trypanosoma cruzi [33] = assay: Antitrypanosomal activity against Trypanosoma cruzi Tulahuen amastigotes infected in mouse 3T3 cells assessed as reduction in parasite growth at Emax concentration incubated for 48 hrs by […] staining based analysis; type: functional; design: scale not given: the % may be the effect or the level left
[34] = Cytotoxicity against mouse 3T3 cells; type: toxicity, cell-based; conditions: NIH3T3 cells
[35] = system: Mycobacterium tuberculosis; assay: Antimycobacterial activity against Mycobacterium tuberculosis infected in BALB/c mouse assessed as log reduction in bacterial load in lung by measuring colony forming unit at 15 mg/kg, po administered 5 days per week for 3 weeks starting from day 10 post infection (reference value: 8.8 x 10^3 CFU); type: functional

SMILES	solubility [1] [µM]	MIC [2] [µg/mL]	MIC [3] [µg/mL]	MIC (Mycobacterium avium) [µg/mL]	MIC [4] [µg/mL]	MIC [5] [µg/mL]	fraction unbound [9]	fraction unbound [10]	Cmax [11] [ng/mL]	Tmax [13] [h]	bioavailability [14] [%]	Vd [15] [L/kg]	clearance [16] [mL/min/kg]	half-life [17] [min]	Activity [21]	Activity [22]	other results
O=c1c2nc([N+](=O)[O-])cn2ccn1Cc1cccc(C(F)(F)F)c1	2.9 (≈ 0.981 µg/mL)	0.063 (≈ 0.186 µM)	≤ 0.016	> 32	> 32	0.25 (≈ 0.739 µM)	0.04	0.08	3400	2.7	64	1.2	7.66	114	Non-Toxic	Non-Toxic	kcat [6]: 1.6 10^-2/s; Km [7]: 9.4 µM; kcat/Km [8]: 1650 M⁻¹ s⁻¹; AUC(0-t) at 24 h [12]: 20800 ng·h/mL; log(activity) [18]: 0.75; log(activity) [19]: 1.1; log(activity) [20]: 1.7
O=c1c2nc([N+](=O)[O-])cn2ccn1Cc1ccc(OC(F)(F)F)cc1	< 1	–	0.031 (≈ 0.0875 µM)	> 32	> 32	–	< 0.01	< 0.01	3300	5.3	98	2.2	6.36	228	Non-Toxic	Non-Toxic	remaining at 2 h [23]: > 99%; remaining at 2 h [24]: > 99%; remaining at 2 h [25]: 98%; remaining at 2 h [26]: > 99%; half-life [27]: 288 min; AUC(0-t) at 24 h [28]: 38900 ng·h/mL; log(activity) [29]: 0.21; solubility [30]: < 1 µM; solubility [31]: < 1 µM; IC90 (Trypanosoma cruzi [32]): 720 nM; Activity (Trypanosoma cruzi [33]): 100%; CC50 [34]: > 73 µM
CO[C@H]1/C=C/O[C@@]2(C)Oc3c(C)c(O)c4c(O)c(c(/C=N/N5CCN(C)CC5)c(O)c4c3C2=O)NC(=O)/C(C)=C\C=C\[C@H](C)[C@H](O)[C@@H](C)[C@@H](O)[C@@H](C)[C@H](OC(C)=O)[C@@H]1C [RIFAMPIN]	–	0.005 (≈ 0.00608 µM)	< 0.016	4 (≈ 4.86 µM)	4 (≈ 4.86 µM)	0.08 (≈ 0.0972 µM)	–	–	–	–	–	–	–	–	–	–	log(activity) [35]: 2.7

From ChEMBL document CHEMBL5104178, “Nitroimidazopyrazinones with Oral Activity against Tuberculosis and Chagas Disease in Mouse Models of Infection” (J Med Chem, 2022)
